The source of these data is the Biogen ADME set (Fang et al. 2023).

For this data set the following is noted: for aqueous solubility: pH 6.8.

Values after ≈ are worked out from the molar mass of the structure shown.

For `CN(C)C(=O)OCCN1CCC(c2c[nH]c3ncccc23)CC1`, the MDR1-MDCK efflux ratio is 6.4; the intrinsic clearance, human liver microsomes came out at 1.78 L/h/kg; the intrinsic clearance, rat liver microsomes amounted to 6.08 L/h/kg; the aqueous solubility (commonly the concentration that dissolves in the medium under given conditions) came out at 0.05 mg/mL (≈ 158 µM).

Take `Cc1nc(CC(=O)NCc2ccccc2)cs1`: the MDR1-MDCK efflux ratio turned out to be 0.79; the intrinsic clearance, human liver microsomes was no more than 0.284 L/h/kg; the intrinsic clearance, rat liver microsomes came to 2.34 L/h/kg; the aqueous solubility turned out to be 0.026 mg/mL (≈ 106 µM).

`Cc1ncn(Cc2noc(-c3ccccc3O)n2)c1C`: the MDR1-MDCK efflux ratio is 0.643; the intrinsic clearance, human liver microsomes was 1.19 L/h/kg; the intrinsic clearance, rat liver microsomes was found to be 29 L/h/kg.

Regarding `Cc1ccc(S(=O)(=O)Nc2ccc3c(c2)CCCN3C(=O)c2cccs2)cc1C`, the intrinsic clearance, human liver microsomes turned out to be 21.8 L/h/kg and the intrinsic clearance, rat liver microsomes is 143 L/h/kg.

With `C[C@]1(O)CN(C(=O)Cn2cnc3ccccc32)CC[C@@H]1Oc1ccccc1`, the MDR1-MDCK efflux ratio was 47.2; the intrinsic clearance, human liver microsomes is 0.333 L/h/kg; the intrinsic clearance, rat liver microsomes is 10.8 L/h/kg.

In the case of `COc1ccc(-c2csc(CC(N)=O)n2)cc1`, the MDR1-MDCK efflux ratio was determined as 0.751 and the aqueous solubility worked out at 0.0313 mg/mL (≈ 126 µM).

`CCc1nc(C)cc(N2CCCC3(CCNCC3)CC2)n1`: the MDR1-MDCK efflux ratio stood at 32.4; the intrinsic clearance, human liver microsomes is no more than 0.284 L/h/kg; the intrinsic clearance, rat liver microsomes was no more than 0.64 L/h/kg.

As to `CCn1nccc1-c1cc(C)nc(N2CCCC2)n1`, the MDR1-MDCK efflux ratio came out at 0.641; the intrinsic clearance, human liver microsomes was determined as 6.88 L/h/kg; the intrinsic clearance, rat liver microsomes turned out to be 23.9 L/h/kg.

Turning to `O=C(Nc1ccccc1)Nc1ccc(OC(F)(F)F)cc1`, the MDR1-MDCK efflux ratio worked out at 0.328 and the aqueous solubility came to 0.0008 mg/mL (≈ 2.7 µM).

For `CC1=C(Br)CN(CCc2nc3ccccc3c(=O)[nH]2)CC1`, the MDR1-MDCK efflux ratio was found to be 0.856; the intrinsic clearance, human liver microsomes worked out at 7.98 L/h/kg; the intrinsic clearance, rat liver microsomes was found to be 123 L/h/kg.

`COc1ccc(CC(=O)Nc2ccc(F)nc2)cc1`: the MDR1-MDCK efflux ratio is 0.624; the intrinsic clearance, human liver microsomes amounted to 0.991 L/h/kg; the intrinsic clearance, rat liver microsomes was 4.59 L/h/kg.

Regarding `CNC(=O)c1ccc(/C=C/c2nc3cc(Cl)ccc3o2)cc1`, the MDR1-MDCK efflux ratio was determined as 0.598 and the aqueous solubility came out at 0.00076 mg/mL (≈ 2.43 µM).

Regarding `O=C(NC1CC1)c1cccc2cccnc12`, the MDR1-MDCK efflux ratio came to 0.708; the intrinsic clearance, human liver microsomes is 0.314 L/h/kg; the intrinsic clearance, rat liver microsomes was found to be 1.88 L/h/kg; the aqueous solubility worked out at 0.0338 mg/mL (≈ 159 µM).

Take `CCOc1cc(CN2CCc3c(N)nc(N4CCCC4)nc3C2)ccc1OC`: the MDR1-MDCK efflux ratio was found to be 16.6; the intrinsic clearance, human liver microsomes amounted to 1.6 L/h/kg; the intrinsic clearance, rat liver microsomes is 16.8 L/h/kg.

As to `CN(Cc1cnn(C)c1)c1ncnc2c1oc1ccccc12`, the MDR1-MDCK efflux ratio was determined as 0.969; the intrinsic clearance, human liver microsomes amounted to 1.18 L/h/kg; the intrinsic clearance, rat liver microsomes was found to be 30.3 L/h/kg; the aqueous solubility worked out at 0.0425 mg/mL (≈ 145 µM).

Compound `Cc1ccc(C)c(CN2C(=O)C(=O)N(CC(C)C)C2=O)c1` displayed an aqueous solubility of 0.00175 mg/mL (≈ 6.07 µM).

As to `Cc1nc(-c2ccccc2)nc(O)c1C`, the MDR1-MDCK efflux ratio stood at 0.634; the intrinsic clearance, human liver microsomes is 1.16 L/h/kg; the intrinsic clearance, rat liver microsomes came to 3.26 L/h/kg.

On to `Cc1ccc(CNc2ncnn2C)nc1`, for which the MDR1-MDCK efflux ratio was determined as 0.685; the intrinsic clearance, human liver microsomes was no more than 0.284 L/h/kg; the intrinsic clearance, rat liver microsomes is no more than 0.64 L/h/kg.

Take `COc1ccc(Nc2ncnc3sccc23)c(OC)c1`: the MDR1-MDCK efflux ratio amounted to 0.572; the intrinsic clearance, human liver microsomes came out at 5.36 L/h/kg; the intrinsic clearance, rat liver microsomes was determined as 36.3 L/h/kg; the aqueous solubility is 0.0401 mg/mL (≈ 140 µM).

In the case of `Cc1cnn(Cc2cc(F)ccc2F)c1N`, the intrinsic clearance, human liver microsomes is 0.402 L/h/kg; the intrinsic clearance, rat liver microsomes is no more than 0.64 L/h/kg; the aqueous solubility is 0.0412 mg/mL (≈ 185 µM).

Turning to `CN(C)[C@@H]1CN(C(=O)COc2ccccc2)C[C@H]1O`, the intrinsic clearance, human liver microsomes was no more than 0.284 L/h/kg; the intrinsic clearance, rat liver microsomes was 1.06 L/h/kg; the aqueous solubility was 0.0833 mg/mL (≈ 315 µM).

`CN1CCC(C(=O)N2CCC(c3cc(C(F)(F)F)c4c(n3)CCNC4=O)CC2)CC1`: the MDR1-MDCK efflux ratio is 5.17; the intrinsic clearance, human liver microsomes is no more than 0.284 L/h/kg; the intrinsic clearance, rat liver microsomes stood at 0.658 L/h/kg; the aqueous solubility was 0.0523 mg/mL (≈ 123 µM).

In the case of `CCn1c(C)nc2cc(NC(=O)c3ccc(=O)n(CC(=O)N4CCCCC4)c3)ccc21`, the MDR1-MDCK efflux ratio came out at 4.08; the intrinsic clearance, human liver microsomes is no more than 0.284 L/h/kg; the intrinsic clearance, rat liver microsomes came out at 3.29 L/h/kg; the aqueous solubility came out at 0.0784 mg/mL (≈ 186 µM).

Consider `COCCc1nsc(Oc2ccc(C)cc2Br)n1`, for which the MDR1-MDCK efflux ratio is 0.578; the intrinsic clearance, human liver microsomes worked out at 8.88 L/h/kg; the intrinsic clearance, rat liver microsomes stood at 276 L/h/kg.

With `Nc1nnc(-c2ccc3c(c2)OCCO3)o1`, the MDR1-MDCK efflux ratio is 0.657; the intrinsic clearance, human liver microsomes is no more than 0.284 L/h/kg; the intrinsic clearance, rat liver microsomes came out at 3.69 L/h/kg; the aqueous solubility worked out at 0.0234 mg/mL (≈ 107 µM).

In turn, `CC(=O)N1CCN(c2c(Cl)cccc2NC(=O)COc2ccccc2Cl)CC1` gave a fraction unbound, human plasma of 0.0181; an intrinsic clearance, human liver microsomes of 25.8 L/h/kg; an intrinsic clearance, rat liver microsomes of 215 L/h/kg; an aqueous solubility of 0.0195 mg/mL (≈ 46.2 µM).

For the compound `CC(=O)N1CCCN(C(=O)Cc2csc(C(C)C)n2)CC1`, the MDR1-MDCK efflux ratio amounted to 20.4; the intrinsic clearance, human liver microsomes was no more than 0.284 L/h/kg; the intrinsic clearance, rat liver microsomes was determined as 2 L/h/kg; the aqueous solubility is 0.0551 mg/mL (≈ 178 µM).

In the case of `NC1CCCC(C(=O)Nc2ccc3[nH]ncc3c2)C1` (centres undefined), the MDR1-MDCK efflux ratio is 0.764; the fraction unbound, human plasma was 1; the intrinsic clearance, human liver microsomes is 0.764 L/h/kg.

On to `CC(C)CCN1CCC(CNS(C)(=O)=O)CC1`, for which the MDR1-MDCK efflux ratio is 2.43; the intrinsic clearance, human liver microsomes is no more than 0.284 L/h/kg; the intrinsic clearance, rat liver microsomes is no more than 0.64 L/h/kg.

`CCc1cc(=O)[nH]c(SCCCCC2CCOCC2)n1`: the MDR1-MDCK efflux ratio was 1.12; the intrinsic clearance, human liver microsomes is 2.05 L/h/kg; the intrinsic clearance, rat liver microsomes came to 17.2 L/h/kg.

Regarding `O=C(NCc1ccc(F)cc1)c1ccccn1`, the MDR1-MDCK efflux ratio stood at 0.543; the intrinsic clearance, human liver microsomes is no more than 0.284 L/h/kg; the intrinsic clearance, rat liver microsomes came out at 1.27 L/h/kg; the aqueous solubility stood at 0.0348 mg/mL (≈ 151 µM).

`CN1C(=O)N(CC(=O)NCc2ccc(Cl)cc2)C(=O)C12CCCCC2`: the MDR1-MDCK efflux ratio is 5.53; the intrinsic clearance, human liver microsomes worked out at 47.7 L/h/kg; the intrinsic clearance, rat liver microsomes turned out to be 126 L/h/kg; the aqueous solubility turned out to be 0.0507 mg/mL (≈ 139 µM).

Regarding `COc1ccc(OC)c(S(=O)(=O)NCCC(=O)Nc2ccccc2C)c1`, the MDR1-MDCK efflux ratio came to 19.9; the intrinsic clearance, human liver microsomes came to 3.09 L/h/kg; the intrinsic clearance, rat liver microsomes amounted to 36.9 L/h/kg.

With `Cc1ccc(C)c2nc3c(cc12)CNCCO3`, the MDR1-MDCK efflux ratio came to 0.525; the intrinsic clearance, human liver microsomes was 1.42 L/h/kg; the intrinsic clearance, rat liver microsomes was found to be 14.1 L/h/kg.

Turning to `Cc1nc2ccccc2c(N)c1C(=O)/C=C/c1ccccc1`, the MDR1-MDCK efflux ratio was 0.244; the intrinsic clearance, human liver microsomes amounted to 3 L/h/kg; the intrinsic clearance, rat liver microsomes was determined as 55.3 L/h/kg; the aqueous solubility was found to be 0.0414 mg/mL (≈ 144 µM).

Regarding `Cc1cccc(OCC(=O)Nc2ccn(C)n2)c1`, the intrinsic clearance, human liver microsomes was 1.26 L/h/kg; the intrinsic clearance, rat liver microsomes worked out at 28.8 L/h/kg; the aqueous solubility was 0.0435 mg/mL (≈ 177 µM).

In the case of `CCC(C)(C)c1ccc(Oc2ccc(NC3=NN(c4ccccc4)C(=O)C3)cc2)cc1`, the intrinsic clearance, human liver microsomes turned out to be 0.457 L/h/kg and the intrinsic clearance, rat liver microsomes was determined as 1.03 L/h/kg.

On to `COc1ccc(CC2CN3CCN(C(=O)OCc4ccccc4)CC3CO2)cc1` (centres undefined), for which the MDR1-MDCK efflux ratio was found to be 0.797; the intrinsic clearance, human liver microsomes amounted to 1.99 L/h/kg; the intrinsic clearance, rat liver microsomes was determined as 51.7 L/h/kg.

As to `N#Cc1ccc(COc2cccc(C3CCN(Cc4nc5ccc(C(=O)O)cc5n4C[C@@H]4CCO4)CC3)n2)c(F)c1`, the MDR1-MDCK efflux ratio was determined as 35.5; the fraction unbound, human plasma is 0.0253; the fraction unbound, rat plasma turned out to be 0.0205.

As for `O=C(CCc1cc2ccccc2o1)N1CCN(c2cnccn2)CC1`, the MDR1-MDCK efflux ratio came out at 0.629; the intrinsic clearance, human liver microsomes came out at 4.17 L/h/kg; the intrinsic clearance, rat liver microsomes was 29.8 L/h/kg; the aqueous solubility was 0.0555 mg/mL (≈ 165 µM).

Consider `Cc1cc(C(=O)N(C)Cc2ccc(Br)cc2)no1`, for which the MDR1-MDCK efflux ratio was determined as 0.69; the intrinsic clearance, human liver microsomes is 5.57 L/h/kg; the intrinsic clearance, rat liver microsomes is 56.5 L/h/kg; the aqueous solubility turned out to be 0.064 mg/mL (≈ 207 µM).

In the case of `CCn1cc(C(=O)O)c(=O)c2c(N)c(F)c(NC3CCCCC3)cc21`, the fraction unbound, human plasma amounted to 0.0268; the fraction unbound, rat plasma stood at 0.0267; the intrinsic clearance, human liver microsomes is 0.523 L/h/kg; the intrinsic clearance, rat liver microsomes was found to be 6.72 L/h/kg.

Turning to `CCN(CCO)Cc1nc2cc(OC)c(OC)cc2c(=O)[nH]1`, the MDR1-MDCK efflux ratio came out at 31.2; the intrinsic clearance, human liver microsomes was no more than 0.284 L/h/kg; the intrinsic clearance, rat liver microsomes is no more than 0.64 L/h/kg.

Consider `Clc1cccc(-c2nnc(Cn3cnc4ccccc43)o2)c1`, for which the MDR1-MDCK efflux ratio was determined as 0.866; the intrinsic clearance, human liver microsomes stood at 0.434 L/h/kg; the intrinsic clearance, rat liver microsomes was found to be 7.32 L/h/kg; the aqueous solubility came out at 0.0274 mg/mL (≈ 88.2 µM).

With `O=C(c1cccc(N2CCNC2=O)c1)N1CCc2ccccc2C1`, the MDR1-MDCK efflux ratio is 5.72; the intrinsic clearance, human liver microsomes was 0.77 L/h/kg; the intrinsic clearance, rat liver microsomes is 19.3 L/h/kg; the aqueous solubility is 0.0423 mg/mL (≈ 132 µM).

For `O=C(Nc1ccc(C(F)(F)F)cc1)c1ccccn1`, the intrinsic clearance, human liver microsomes was found to be 1.91 L/h/kg and the intrinsic clearance, rat liver microsomes is 9.9 L/h/kg.

Regarding `Cc1cc(CNc2ncc(C(F)(F)F)cc2Cl)no1`, the MDR1-MDCK efflux ratio was determined as 0.601; the intrinsic clearance, human liver microsomes was found to be 3.88 L/h/kg; the intrinsic clearance, rat liver microsomes was 7.71 L/h/kg; the aqueous solubility amounted to 0.0268 mg/mL (≈ 92 µM).

Turning to `CCC(C)(C)c1ccc(Oc2ccc(NC(=O)CSc3cccc[n+]3[O-])cc2)cc1`, the MDR1-MDCK efflux ratio was 2.2 and the aqueous solubility is 0.00045 mg/mL (≈ 1.06 µM).
